# Target: T1, EGFR (Homo sapiens, UniProt P00533)
# T1 construct: endogenous in cells; host or cells: A431 cells (lysate, captured with SUMO1 anti-EGFR antibody)
# Test: Biochemical EGFR Assay
# Set-up: concentration or dose not given beside the values
# Method in brief: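 EGFR from A431 lysate was captured on anti-EGFR-coated wells and preincubated 30 min with compound (diluted 1:10 in TBS) at room temperature. After ATP/MnCl2 phosphorylation for 5 min, the reaction was stopped with EDTA. Phosphotyrosine was detected by ELISA (anti-phosphotyrosine, peroxidase conjugate, ABTS) at 410 nm.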
# T1 sequence (P00533 25-1210): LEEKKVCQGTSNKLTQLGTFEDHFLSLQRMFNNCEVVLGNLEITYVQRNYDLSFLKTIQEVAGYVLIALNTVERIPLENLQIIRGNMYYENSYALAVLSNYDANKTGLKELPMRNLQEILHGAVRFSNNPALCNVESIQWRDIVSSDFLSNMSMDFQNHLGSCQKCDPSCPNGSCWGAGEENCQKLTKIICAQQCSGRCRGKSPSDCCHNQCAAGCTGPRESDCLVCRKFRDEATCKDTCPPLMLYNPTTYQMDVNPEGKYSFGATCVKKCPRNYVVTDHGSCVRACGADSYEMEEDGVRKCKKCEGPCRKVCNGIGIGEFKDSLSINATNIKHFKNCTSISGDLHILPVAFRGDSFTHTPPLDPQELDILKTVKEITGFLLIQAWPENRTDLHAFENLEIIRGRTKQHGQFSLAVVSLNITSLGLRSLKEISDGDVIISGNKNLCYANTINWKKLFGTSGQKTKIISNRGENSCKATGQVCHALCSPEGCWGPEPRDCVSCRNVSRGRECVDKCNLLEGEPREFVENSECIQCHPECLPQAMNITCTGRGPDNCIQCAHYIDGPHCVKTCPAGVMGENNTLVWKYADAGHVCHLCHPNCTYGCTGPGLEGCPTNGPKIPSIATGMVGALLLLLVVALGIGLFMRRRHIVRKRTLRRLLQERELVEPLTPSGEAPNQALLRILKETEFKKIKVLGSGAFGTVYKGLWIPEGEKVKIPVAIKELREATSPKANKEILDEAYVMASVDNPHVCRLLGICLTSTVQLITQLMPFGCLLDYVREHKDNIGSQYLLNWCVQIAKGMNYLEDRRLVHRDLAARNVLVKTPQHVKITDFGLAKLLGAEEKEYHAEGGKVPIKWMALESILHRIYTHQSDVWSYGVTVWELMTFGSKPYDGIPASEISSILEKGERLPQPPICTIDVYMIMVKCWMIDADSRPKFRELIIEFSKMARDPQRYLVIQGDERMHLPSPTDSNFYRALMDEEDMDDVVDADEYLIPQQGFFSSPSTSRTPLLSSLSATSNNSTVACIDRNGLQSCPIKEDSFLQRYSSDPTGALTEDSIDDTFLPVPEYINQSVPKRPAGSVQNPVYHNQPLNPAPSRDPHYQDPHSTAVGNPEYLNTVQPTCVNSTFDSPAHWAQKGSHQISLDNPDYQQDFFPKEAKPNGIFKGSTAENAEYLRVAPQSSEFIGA
compound,measurement,value
CNS(=O)(=O)c1ccc2c(c1)C(=Cc1ccc(-c3ccccc3)cc1)C(=O)N2 [10735/D11],Biochem EGFR % Inhibition (P.167),−16.5%
Cc1ccccc1C=C1C(=O)Nc2ccc(S(=O)(=O)Nc3ccc(C(F)(F)F)cc3)cc21 [10735/E02],Biochem EGFR % Inhibition (P.167),16.7%
O=C1Nc2ccc(S(=O)(=O)Nc3ccc(C(F)(F)F)cc3)cc2C1=Cc1ccc(F)c(F)c1 [10735/E03],Biochem EGFR % Inhibition (P.167),18.9%
O=C1Nc2ccc(S(=O)(=O)Nc3ccc(C(F)(F)F)cc3)cc2C1=Cc1cc(F)cc(F)c1 [10735/E04],Biochem EGFR % Inhibition (P.167),14.3%
O=C1Nc2ccc(S(=O)(=O)Nc3ccc(C(F)(F)F)cc3)cc2C1=Cc1cccc(C(F)(F)F)c1 [10735/E05],Biochem EGFR % Inhibition (P.167),30.6%
O=C1Nc2ccc(S(=O)(=O)Nc3ccc(C(F)(F)F)cc3)cc2C1=Cc1cc(C(F)(F)F)cc(C(F)(F)F)c1 [10735/E06],Biochem EGFR % Inhibition (P.167),8.7%
N#Cc1ccccc1C=C1C(=O)Nc2ccc(S(=O)(=O)Nc3ccc(C(F)(F)F)cc3)cc21 [10735/E07],Biochem EGFR % Inhibition (P.167),27.4%
O=C1Nc2ccc(S(=O)(=O)Nc3ccc(C(F)(F)F)cc3)cc2C1=Cc1c(F)cccc1F [10735/E08],Biochem EGFR % Inhibition (P.167),10.2%
O=C1Nc2ccc(S(=O)(=O)Nc3ccc(C(F)(F)F)cc3)cc2C1=Cc1cccc2ccccc12 [10735/E09],Biochem EGFR % Inhibition (P.167),−3.9%
O=C1Nc2ccc(S(=O)(=O)Nc3ccc(C(F)(F)F)cc3)cc2C1=Cc1ccc(Cl)cc1Cl [10735/E10],Biochem EGFR % Inhibition (P.167),19.1%
O=C1Nc2ccc(S(=O)(=O)Nc3ccc(C(F)(F)F)cc3)cc2C1=Cc1ccc(-c2ccccc2)cc1 [10735/E11],Biochem EGFR % Inhibition (P.167),10.1%
Cc1ccccc1C=C1C(=O)Nc2ccc(S(=O)(=O)N3CCOCC3)cc21 [10735/F02],Biochem EGFR % Inhibition (P.167),19.8%
O=C1Nc2ccc(S(=O)(=O)N3CCOCC3)cc2C1=Cc1ccc(F)c(F)c1 [10735/F03],Biochem EGFR % Inhibition (P.167),19.1%
O=C1Nc2ccc(S(=O)(=O)N3CCOCC3)cc2C1=Cc1cc(F)cc(F)c1 [10735/F04],Biochem EGFR % Inhibition (P.167),10.6%
O=C1Nc2ccc(S(=O)(=O)N3CCOCC3)cc2C1=Cc1cccc(C(F)(F)F)c1 [10735/F05],Biochem EGFR % Inhibition (P.167),5.5%
O=C1Nc2ccc(S(=O)(=O)N3CCOCC3)cc2C1=Cc1cc(C(F)(F)F)cc(C(F)(F)F)c1 [10735/F06],Biochem EGFR % Inhibition (P.167),13.0%
N#Cc1ccccc1C=C1C(=O)Nc2ccc(S(=O)(=O)N3CCOCC3)cc21 [10735/F07],Biochem EGFR % Inhibition (P.167),28.9%
O=C1Nc2ccc(S(=O)(=O)N3CCOCC3)cc2C1=Cc1c(F)cccc1F [10735/F08],Biochem EGFR % Inhibition (P.167),9.4%
O=C1Nc2ccc(S(=O)(=O)N3CCOCC3)cc2C1=Cc1cccc2ccccc12 [10735/F09],Biochem EGFR % Inhibition (P.167),0.0%
O=C1Nc2ccc(S(=O)(=O)N3CCOCC3)cc2C1=Cc1ccc(Cl)cc1Cl [10735/F10],Biochem EGFR % Inhibition (P.167),15.7%
O=C1Nc2ccc(S(=O)(=O)N3CCOCC3)cc2C1=Cc1ccc(-c2ccccc2)cc1 [10735/F11],Biochem EGFR % Inhibition (P.167),14.8%
Cc1ccccc1C=C1C(=O)Nc2ccc(CCCl)cc21 [10735/G02],Biochem EGFR % Inhibition (P.167),23.7%
O=C1Nc2ccc(CCCl)cc2C1=Cc1ccc(F)c(F)c1 [10735/G03],Biochem EGFR % Inhibition (P.167),30.3%
O=C1Nc2ccc(CCCl)cc2C1=Cc1cc(F)cc(F)c1 [10735/G04],Biochem EGFR % Inhibition (P.167),22.8%
O=C1Nc2ccc(CCCl)cc2C1=Cc1cccc(C(F)(F)F)c1 [10735/G05],Biochem EGFR % Inhibition (P.167),16.7%
O=C1Nc2ccc(CCCl)cc2C1=Cc1cc(C(F)(F)F)cc(C(F)(F)F)c1 [10735/G06],Biochem EGFR % Inhibition (P.167),2.1%
